Key:
[1] = tested on: 66 kDa protein in the retina; experiment: 66 kDa protein increase inhibitory action in retina of rats irradiated with UV-A; assay type: in vivo; conditions: Wistar male rats, 10 mg/kg, p.o., UV-A irradiation, retina 48 hours after irradiation, N = 3
Protocol: An action for inhibition of an increase in 66 kDa protein in the retina of rats irradiated with ultraviolet light of the compounds of the present invention was evaluated. To Wistar male rats (7 to 9 weeks old), a solution or suspension prepared by dissolving or suspending each of test compounds in a 0.1N hydrochloric acid solution or a 1% poly oxy ethylene hydrogenated castor oil (NIKKOL HCO-60) solution was orally administered. After 30 minutes, right eye was irradiated with UV-A (12 mW/cm^2) using a UV spot light source for 30 minutes. Left eye was not irradiated (control). During irradiation with UV-A and 2 hours before and after irradiation, rats were bred under an atmosphere where room light is screened. 48 hours after irradiation, the retina was separated. In the same manner as in Example 21, a 5% homogenate solution was prepared. Regarding a change in retinal protein, SDS-polyacrylamide electrophoresis was carried out according to the process of Lammli (Nature, […], 680-685, 1970). […] Then, the specimen was decolored with ethanol:acetic acid:water (25:8:65) and the 66 kDa protein after migration was analyzed by a densitograph. The amount of the protein in the specimen was determined by a Lowry process.

5-lipoxygenase (5-LO) = molecular target: T1, 5-lipoxygenase (5-LO) (Homo sapiens, UniProt P09917); experiment: 5-lipoxygenase (5-LO) inhibitory activity, leukotriene B4 production in human peripheral blood mononuclear cells; assay type: cell-based; conditions: human peripheral blood mononuclear cells, A23187, leukotriene B4 production
T1 construct: human peripheral blood mononuclear cells and each of test compounds dissolved in DMSO (final concentration: 1%) were preincubated; endogenous in cells; host or cells: human peripheral blood mononuclear cells
T1 sequence (P09917 1-674): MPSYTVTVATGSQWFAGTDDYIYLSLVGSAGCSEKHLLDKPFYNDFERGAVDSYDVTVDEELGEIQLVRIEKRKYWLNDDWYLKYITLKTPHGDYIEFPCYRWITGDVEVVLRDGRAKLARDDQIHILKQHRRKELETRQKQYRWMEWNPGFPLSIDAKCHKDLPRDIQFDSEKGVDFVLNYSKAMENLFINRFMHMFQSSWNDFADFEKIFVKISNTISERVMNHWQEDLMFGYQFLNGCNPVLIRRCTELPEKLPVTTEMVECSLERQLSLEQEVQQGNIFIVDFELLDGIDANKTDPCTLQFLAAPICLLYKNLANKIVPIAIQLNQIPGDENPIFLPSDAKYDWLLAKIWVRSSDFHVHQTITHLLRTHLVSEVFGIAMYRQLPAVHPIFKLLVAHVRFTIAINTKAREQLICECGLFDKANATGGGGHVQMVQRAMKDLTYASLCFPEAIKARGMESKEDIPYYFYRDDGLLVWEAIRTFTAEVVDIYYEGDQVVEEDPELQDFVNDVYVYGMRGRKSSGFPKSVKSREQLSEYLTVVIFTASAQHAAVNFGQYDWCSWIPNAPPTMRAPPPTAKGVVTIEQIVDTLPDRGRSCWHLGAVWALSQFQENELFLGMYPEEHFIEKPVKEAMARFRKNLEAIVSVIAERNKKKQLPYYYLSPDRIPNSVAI
Protocol: A 5-LO inhibitory activity was measured by a partially modified process of a process of Carter et al. (Carter G. W, et al, J. Pharmacol. Exp. Ther.: 256, 929-37, 1991). That is, human peripheral blood mononuclear cells and each of test compounds dissolved in DMSO (final concentration: 1%) were preincubated (37° C., 15 minutes) in a Hanks' balanced salt solution and 30 μM A23187 was further added, followed by incubation (37° C., 30 minutes). The amount of leukotriene B4 produced as a result of incubation was determined by enzyme immunoassay and a 50% production inhibitory concentration (μM) against 5-LO of each test compound was calculated.

[2] = molecular target: T2, 15-LO obtained from reticulocyte of rabbit (Oryctolagus cuniculus, UniProt P12530); experiment: 15-lipoxygenase (15-LO) inhibitory activity, 15-HETE production; assay type: biochemical; conditions: 15-LO from reticulocyte of rabbit, linoleic acid
T2 construct: 15-LO obtained from reticulocyte of rabbit; from tissue; host or cells: rabbit reticulocytes
T2 sequence (P12530 1-663): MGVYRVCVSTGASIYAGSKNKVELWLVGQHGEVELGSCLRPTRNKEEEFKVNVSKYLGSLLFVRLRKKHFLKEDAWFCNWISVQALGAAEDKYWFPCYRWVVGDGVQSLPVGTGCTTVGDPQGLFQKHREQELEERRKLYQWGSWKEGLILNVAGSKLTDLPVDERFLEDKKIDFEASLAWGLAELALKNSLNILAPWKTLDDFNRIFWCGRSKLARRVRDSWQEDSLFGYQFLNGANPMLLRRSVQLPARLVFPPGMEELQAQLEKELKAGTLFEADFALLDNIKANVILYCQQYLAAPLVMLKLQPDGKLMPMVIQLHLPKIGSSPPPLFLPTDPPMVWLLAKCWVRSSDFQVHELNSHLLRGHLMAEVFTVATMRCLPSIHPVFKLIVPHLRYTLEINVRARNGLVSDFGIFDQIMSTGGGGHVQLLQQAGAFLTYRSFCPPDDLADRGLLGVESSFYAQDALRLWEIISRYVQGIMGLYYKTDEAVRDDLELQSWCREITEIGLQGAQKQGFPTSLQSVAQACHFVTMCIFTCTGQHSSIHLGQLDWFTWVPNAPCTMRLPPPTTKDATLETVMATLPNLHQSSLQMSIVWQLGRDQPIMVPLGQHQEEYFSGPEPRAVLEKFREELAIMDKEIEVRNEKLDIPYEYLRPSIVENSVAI
Protocol: A 15-LO inhibitory activity was measured by a partially modified process of a process of Auerbach et al. (Auerbach B. J, et al., Anal. Biochem.: 201, 375-80, 1992). That is, 15-LO obtained from reticulocyte of rabbit and each of test compounds dissolved in DMSO (final concentration: 1%) were preincubated (4° C., 15 minutes) in phosphoric acid buffer (pH 7.4) and 256 μM linoleic acid was further added, followed by incubation (4° C., 10 minutes). The amount of 15-HETE produced as a result of incubation was determined by spectrophotometry (OD660nm) and 50% production inhibitory concentration (μM) against 15-LO of each test compound was calculated. Compounds (R-3) and (R-4) (edaravone) of the following formulas were used as a control drug.

In the case of `Cc1c(C)c2c(c(C)c1N)CC(C)(CN1CCN(c3cccc(-n4ccnc4)c3)CC1)O2` (stereo not drawn) [Compound B-1-18], the “66 kDa protein ratio in retina of rats irradiated with ultraviolet light (right eye: irradiated/left eye: non-irradiated)” value [1] is reported as 1.50, the IC50 (5-lipoxygenase (5-LO)) is reported as 2550 nM and the IC50 [2] is reported as 1540 nM.
